This note sets out measurements from publication PMC6010102, “N-thioalkylcarbazoles derivatives as new anti-proliferative agents: synthesis, characterisation and molecular mechanism evaluation” (Journal of Enzyme Inhibition and Medicinal Chemistry, 2018).

One assay relates to caspase-8. Put plainly: Caspase-Glo assay, caspase-8. As to conditions: HeLa cells, concentration equal to IC50, 24 h. Format: cell-based, human. How it is done: (§1) Caspases-3/7, -8 and -9 activities were measured with the Caspase-Glo Assay, according to the guidelines of manufacturer (Caspase-Glo® 3/7, 8 and 9 Assay Systems, Promega Corporation, Madison, WI) as described in Iacopetta et al.[43].

A further assay concerns caspases 3 and 7. Kind of assay: Caspase-Glo assay, caspases 3/7. As to conditions: HeLa cells, concentration equal to IC50, 24 h. Format: cell-based, human. The protocol: as §1
Assay [1] deals with MCF-10A human mammary epithelial cells. Kind of assay: MTT cell viability, MCF-10A. It is filed as cell-based. Conditions: non-tumoural cells, 72 h exposure, mean ± SD, read-out: Antiproliferative activity IC50, MCF-10a. From the text:
(§2) The six cell lines used in this work were purchased from American Type Culture Collection (ATCC, Manassas, VA). MCF-7 human breast cancer cells, oestrogen receptor (ER) positives, were maintained in Dulbecco’s Modified Eagle’s Medium/Nutrient Mixture F-12 Ham (DMEM/F12), supplemented with 5% foetal bovine serum (FBS) and 100 U/ml penicillin/streptomycin, as previously described. MDA-MB-231, human breast cancer cells, oestrogen receptor (ER) negative, were maintained in Dulbecco’s Modified Eagle’s Medium/Nutrient Mixture F-12 Ham (DMEM/F12), supplemented with 5% Newborn Calf Serum (NCS) and 100 U/ml penicillin/streptomycin. HeLa human epithelial cervix carcinoma cells, oestrogen receptor (ER) negative, and ISHIKAWA human endometrial adenocarcinoma cell, oestrogen receptor positive, were maintained in minimum essential medium (MEM), supplemented with 10% FBS, 100 U/ml penicillin/streptomycin and 1% non-essential amino acid. 3T3-L1 cells line of murine fibroblasts of embryonic type, were maintained in DMEM, supplemented with 10% NCS and 100 U/ml penicillin/streptomycin. MCF-10A human mammary epithelial cells were cultured in DMEM/F12 medium, supplemented with 5% horse serum (HS) (Eurobio, Les Ullis, Cedex, France), 100 U/ml penicillin/streptomycin, […] hydrocortisone, 20 ng/ml hEGF (human epidermal growth factor), 10 μg/ml insulin and […] cholera enterotoxin (Sigma-Aldrich, Milano, Italy). Cells were maintained at 37 °C in a humidified atmosphere of 95% air and 5% CO2 and periodically screened for contamination.
(§3) MDA-MB-231, MCF-7, HeLa and ISHIKAWA cells were grown in complete medium and, before being treated, they were serum deprived for 24 h, to allow cell cycle synchronisation. Then cells were grown in phenol red-free medium supplemented with 1% DCC (destran-coated charcoal treated) FBS, then treated with increasing concentrations (0.1, 1, 10, 20, 40, 100 µM) of each compound for 72 h. Compounds were dissolved in dimethylsulphoxide (DMSO) (Sigma, St. Louis, MO) and diluted in each cell medium. Untreated cells, used as a control, were added with DMSO alone (final concentration 0.1%). Cell viability was assessed using the 3-[4,5-dimethylthiazol-2-yl]-2,5-diphenyltetrazolium bromide reagent (MTT), according to the protocol from manufacturer (Sigma-Aldrich, Milan, Italy), as previously described[37] ^, [38]. For each sample, the mean absorbance, measured at 570 nm, was expressed as a percentage of the control and plotted versus drug concentration to determine for each cell line the IC50 values (namely, drugs concentrations able to reduce cell viability of 50% with respect to the control), using GraphPad Prism 5 Software (GraphPad Inc., San Diego, CA)[39]. Each experiment was carried out in quadruplicate. Standard deviations (SD) were shown.

A further assay has as its system Cytochrome c. Put plainly: Cytochrome c immunofluorescence in HeLa cells. Format: cell-based, human. Conditions: concentration equal to IC50, 24 h. The protocol:
Cells were grown on glass coverslips in full media, then serum-deprived for 24 h and exposed to compound to test, at the indicated time. Then, they were PBS-washed, fixed with cold methanol (15 min/−20 °C) and washed three times (10 min/room temperature) with cold PBS containing 0.01% TritonX-100. After incubation (30 min/room temperature) with blocking solution (PBS, 2% BSA), they were incubated with primary antibody diluted in blocking solution (4 °C/overnight). The mouse anti-cytochrome c (556433) was purchased from BD Biosciences (Franklin Lakes, NJ) and used at 1:100 dilution. Coverslips were then washed three times with PBS, then fixed cells were incubated with the secondary antibody Alexa Fluor® 568 conjugate goat-anti-mouse (1:500, Thermo Fisher Scientific, Waltham, MA). Nuclei were stained using DAPI (Sigma-Aldrich, Milan, Italy) for 10 min at a concentration of 0.2 µg/mL then washed three times with PBS. Fluorescence was detected using a fluorescence microscope (Leica DM 6000 Leica, Frankfurt am Main, Germany). LASX software was used to acquire and process all images.

Assay [2] concerns ISHIKAWA human endometrial adenocarcinoma cells. Kind of assay: MTT cell viability, ISHIKAWA
It is filed as cell-based. As to conditions: 72 h exposure, mean ± SD, read-out: Antiproliferative activity IC50, ISHIKAWA
Text: as §2, §3

For another assay, the system named is Parp-1. Kind of assay: Parp-1 cleavage immunoblot in HeLa cells. Format: cell-based, human. Conditions: 10 µM, 24, 48 and 72 h, western blot. How it is done: Cells were serum deprived for 24 h, treated for 24, 48 and 72 h with the compound to be tested. At the end, cells were rinsed twice with ice cold PBS and immediately lysed in lysis buffer (50 mM Tris-HCl, pH 7, 5–8; 150 mM NaCl, 1% Igepal CA-630; 0.1% SDS; 0.5% sodium deoxycholate) containing 1% sodium orthovanadate and 1% phenylmethylsulphonyl fluoride (PMSF). Cell lysates were cleared by centrifugation at 14,000 g for 10 min at 4 °C. Protein concentrations were determined using the Bradford protein assay[40] (Bio-Rad Laboratories, Milan, Italy) according to the directions from the manufacturer. Equal amounts of cell extracts (about 20 µg) were resolved under denaturing conditions by electrophoresis in 10% polyacrylamide gels containing SDS (SDS-PAGE) and transferred to nitrocellulose membranes by electroblotting (GE Healthcare, Piscataway, NJ). […] After incubation with the appropriate secondary antibody (VWR International PBI, MI, Italy) for 1 h at room temperature, the proteins of interest were detected on the membranes by using enhanced chemiluminescence (Amersham ECL Prime Western Blotting Detection Reagent, GE Healthcare, Piscataway, NJ).
Background: A western blot detects proteins with antibodies after separation by electrophoresis.

The target of a further assay is hTopoII (Homo sapiens, UniProt P11388). Kind of assay: Human topoisomerase II decatenation assay. It is filed as biochemical. Conditions: 10 µM. How it is done:
Human topoisomerase II decatenation assay: hTopoII decatenation assays were performed as reported in Iacopetta et al.[8].
Figure 2. hTopoII inhibition assay. kDNA was incubated with human Topoisomerase II in the absence (lane C, vehicle DMSO) or presence of compound 5c (lane 5c) or Ellipticine (lane E) at 10 and 50 µM, respectively. Lane K, kinetoplast DNA (kDNA).

A further assay relates to caspase-9. Put plainly: Caspase-Glo assay, caspase-9. Format: cell-based, human. As to conditions: HeLa cells, concentration equal to IC50, 24 h. The protocol:
as §1

As a reminder, the IC50 is the point on the concentration scale where inhibition reaches its midpoint.

Sequence of hTopoII (P11388 whole entry): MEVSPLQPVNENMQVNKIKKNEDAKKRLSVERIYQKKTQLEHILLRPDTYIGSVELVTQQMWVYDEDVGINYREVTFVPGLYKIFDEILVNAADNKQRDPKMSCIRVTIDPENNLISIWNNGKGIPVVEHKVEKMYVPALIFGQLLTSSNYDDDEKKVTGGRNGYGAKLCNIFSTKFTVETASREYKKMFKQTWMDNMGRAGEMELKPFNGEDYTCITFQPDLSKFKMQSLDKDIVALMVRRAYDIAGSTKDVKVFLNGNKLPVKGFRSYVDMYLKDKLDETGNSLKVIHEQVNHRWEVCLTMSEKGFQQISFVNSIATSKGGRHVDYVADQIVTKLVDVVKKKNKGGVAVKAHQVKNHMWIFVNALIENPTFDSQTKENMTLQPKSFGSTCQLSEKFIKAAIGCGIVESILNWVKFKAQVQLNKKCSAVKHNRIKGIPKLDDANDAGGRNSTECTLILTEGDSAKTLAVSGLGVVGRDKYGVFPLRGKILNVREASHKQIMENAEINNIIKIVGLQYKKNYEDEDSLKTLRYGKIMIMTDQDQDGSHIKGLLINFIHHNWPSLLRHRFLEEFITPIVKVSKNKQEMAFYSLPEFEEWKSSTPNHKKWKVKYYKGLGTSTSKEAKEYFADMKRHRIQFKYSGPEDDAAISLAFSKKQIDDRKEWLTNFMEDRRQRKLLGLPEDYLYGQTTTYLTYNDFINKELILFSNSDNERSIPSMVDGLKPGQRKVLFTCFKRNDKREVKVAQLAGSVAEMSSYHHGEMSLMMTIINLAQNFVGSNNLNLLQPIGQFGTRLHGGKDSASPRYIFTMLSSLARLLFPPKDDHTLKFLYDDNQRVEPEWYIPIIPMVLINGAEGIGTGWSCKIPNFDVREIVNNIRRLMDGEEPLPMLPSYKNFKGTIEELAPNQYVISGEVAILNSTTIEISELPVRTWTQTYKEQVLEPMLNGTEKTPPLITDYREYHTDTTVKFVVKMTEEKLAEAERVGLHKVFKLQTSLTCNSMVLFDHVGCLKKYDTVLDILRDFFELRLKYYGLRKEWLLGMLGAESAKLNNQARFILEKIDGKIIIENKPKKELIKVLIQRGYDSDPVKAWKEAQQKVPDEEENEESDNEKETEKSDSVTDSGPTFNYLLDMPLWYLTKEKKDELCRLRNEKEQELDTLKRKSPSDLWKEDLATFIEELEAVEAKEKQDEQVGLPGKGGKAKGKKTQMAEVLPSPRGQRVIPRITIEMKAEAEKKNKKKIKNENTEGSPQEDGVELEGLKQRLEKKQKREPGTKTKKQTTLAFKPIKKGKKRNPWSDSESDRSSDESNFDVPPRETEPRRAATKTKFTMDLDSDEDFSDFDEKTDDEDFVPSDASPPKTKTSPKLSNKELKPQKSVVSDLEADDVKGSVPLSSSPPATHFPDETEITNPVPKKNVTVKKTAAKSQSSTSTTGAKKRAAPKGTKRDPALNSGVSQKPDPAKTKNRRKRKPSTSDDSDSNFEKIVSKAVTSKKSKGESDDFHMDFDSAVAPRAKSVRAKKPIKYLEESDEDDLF

Turning to `Cc1ccc(C)c2c1c1cc(Br)ccc1n2CCCCCCCS` [5c, 7-(6-Bromo-1,4-dimethyl-9H-carbazol-9-yl)-heptane-1-thiol], the caspase-8 activity result in the assay on caspase-8 is given as “no increase of caspase-8 activity”. In addition, in the assay with caspases 3 and 7, the “caspases 3 and 7 activity” value is “clear increase of caspases 3 and 7 activity”. Further, the IC50 in assay [1] was over 100 µM; in assay [2] it was 15.7 ± 0.95 µM. In addition, the Cytochrome c localisation result in the assay with Cytochrome c is reported as “determines the release of Cytochrome c from mitochondria to the cytosol”. For the same compound, in the assay with Parp-1, the “Parp-1 cleavage (about 89 KDa form)” value is “presence of the cleaved form of Parp-1”. At hTopoII, the “hTopoII inhibition (kDNA decatenation)” value is “able to inhibit hTopoII activity”. For the same compound, the caspase-9 activity result in the assay on caspase-9 was “little, but significant, rise of caspase-9 activity”.
